Laboratory results taken from patent US20130274233A1, “MODULATORS OF HEDGEHOG SIGNALING PATHWAY” (priority 2012, published 2013).

Assays:
Format in all cases: cell-based
[1] = tested on: Hh pathway activation induced by loss of suFU; assay: Gli-luciferase assay in suFU−/− mouse embryonic fibroblasts; details: suFU−/− cells
Experimental: (§1) Hh activity assays were performed using ShhLightll cells, Smo/Lightll cells, SmoM2/Lightll cells, and suFU−/− mouse embryonic fibroblasts. In the suFU−/− cells, Hh activity was measured after co-transfection with Gli driven firefly luciferase and TK-renilla luciferase reporters^41. Wnt activity was measured in 293 cells co-transfected with Top-flash and TK-renilla luciferase reporters^42. Cells were cultured and treated in 96 well assay plates (Corning) and incubated with Duo-Glo luciferase substrates (Promega) to measure firefly and renilla luciferase activity sequentially using a Top Count NX Microplate Scintillation and Luminescence Counter (Perkin Elmer). The renilla luciferase signal was used to normalize the firefly reporter activity.
(§2) ShhLightII cells and SmoM2/LightII cells were cultured and treated in 96 well assay plates (Corning) and incubated with Duo-Glo luciferase substrates (Promega) to sequentially measure firefly and renilla luciferase activity. […] Wnt activity was measured following co-transfection of a Top-flash and renilla luciferase reporter. […] Luciferase signal was read by TopCount NX Microplate Scintillation and Luminescence Counter (Perkin Elmer). Quantitative PCR probes for Ptch1, Gli1, and β-actin were purchased from Applied Biosystems. […]

Hh pathway activity [2] = assay: SAG-induced Gli-luciferase reporter expression (3T3/Shh-LightII); details: Mus musculus, Shh Light II, 3T3/Shh-LightII cells; 100 nM SAG; read-out: IC50, inhibition of SAG-induced expression of Gli-luciferase reporter
Experimental: as §1, §2

Smo::GFP = Smo::GFP (Homo sapiens, UniProt Q99835); assay: Ciliary accumulation of Smo::GFP upon overexpression (3T3/Smo::GFP Overexpression/Ivs::tagRFPT); details: stimulus none, read-out: IC50, inhibiton of ciliary accumulation of Smo::GFP upon overexpression
SmoM2 = assay: Gli-luciferase reporter induced by SmoM2::GFP overexpression (SmoM2/LightII cells)
Source text: (§3) NIH/3T3 cells were maintained in DMEM containing 10% (v/v) calf serum, penicillin, streptomycin, and L-glutamine. HEK293, L, cos 7, and suFU−/− mouse embryonic fibroblast cells were maintained in DMEM containing 10% (v/v) fetal bovine serum, penicillin, streptomycin, and L-glutamine. Smo::EGFP, SmoM2::GFP, and Ivs::tagRFPT were cloned into pBabe to generate retroviral particles for infection. Smo::EGFP/Ivs::tagRFPT and SmoM2::GFP/Ivs::tagRFPT stable cell lines were generated through viral infection of NIH/3T3^12. A ShhLightII Gli reporter cell line was obtained from the American Type Culture Collection (ATCC) and used in luciferase reporter assays to measure Hh pathway activity. The cell line contains a stably integrated Gli-responsive Firefly luciferase reporter and a constitutive Renilla luciferase expression construct^33. Subclones expressing Smo or SmoM2 in ShhLightII cells were used for chemical epistasis analyses.
as §1
(§4) ShhLightII cells and SmoM2/LightII cells were cultured and treated in 96 well assay plates (Corning) and incubated with Duo-Glo luciferase substrates (Promega) to sequentially measure firefly and renilla luciferase activity. Smo, or GFP, expression plasmids were co-transfected into 3T3 cells together with a Gli-responsive firefly reporter and a TK-renilla luciferase reporter contruct to monitor effects of Smo overexpression. Co-transfection of the two reporter constructs was conducted in assays measuring Hh pathway activity in suFU−/− cells. Wnt activity was measured following co-transfection of a Top-flash and renilla luciferase reporter. In both Hh and Wnt activity assays, renilla luciferase reporter activity, or mass of protein, was used to normalize expression values. Luciferase signal was read by TopCount NX Microplate Scintillation and Luminescence Counter (Perkin Elmer). Quantitative PCR probes for Ptch1, Gli1, and β-actin were purchased from Applied Biosystems. Reactions and measurements were performed using on an Applied Biosystems 7900HT at Harvard FAS Center of System Biology. β-actin was used to normalize Ptch1 and Gil1 values.

Smo::EGFP = target: T1, Smo::EGFP (Homo sapiens, UniProt Q99835); assay: High content assay of Shh-induced Smo::EGFP accumulation in the primary cilium (Smo::EGFP/Ivs::tagRFPT NIH/3T3 cells); details: 3T3/Smo::GFP/Ivs::tagRFPT cells; stimulus Shh; read-out: IC50, inhibition of Shh-induced Smo::GFP ciliary accumulaton
T1 construct: expressed in transfected cells
Source text: as §3
Cells were cultured and treated in 384-well imaging plate precoated with poly-D-Lysine (Greiner Bio-one), fixed with 4% paraformaldehyde (Electron Microscopy Sciences), and stained with Hoechst (Invitrogen). Images were collected using Opera High Content Screening System (Perkin Elmer). Activityl)ase (IDBS Inc, Emeryvill, Calif.) and Pipeline Pilot (Accelrys, Inc. San Diego, Calif.) were used for high content screening data management and analysis. Acapella 2.0 software (Evotec Technologies/PerkinElmer) was used to perform multi-parametrical high content image quantification. All the images for comparison were scanned with identical microscopic settings and analyzed with the same input parameters.
Acapella 2.0 software (Evotec Technologies/PerkinElmer) was used to perform multi-parametric high content image quantification. Our image analysis script used Ivs::tagREPT to first determine the location of the PC and then Smo::EGFP to quantify the level of Smo present in the cilium.
The inventors used the spot-finding algorithm in the RFP channel to find Ivs-rich spots. Each non-overlapping spot was based on a maximum 8 pixel-radius (when using a 40× objective) around a central intensity peak of 5 pixels. A distance of at least 10 pixels was required between adjacent spot centers. Spot peaks had to exceed thresholds of relative intensity compared to the remaining body of the spot as well as to the entire image. The average, maximum and total RFP intensity of each spot were measured. The spots with sufficiently high absolute maxima to pass the selected threshold were classified as positive spots. To form candidate cilia, the inventors selected the brightest 15% of the pixels in each positive spot and merged those pixels into objects so that the brightest parts of adjacent spots could form single, larger cilia-shaped objects. To qualify the candidate cilia as true Ivs-positive cilia, the width of the objects created from merging the brightest pixels in each spot had to be at least 2 pixels and the length to half-width ratio had to exceed 3. (i.e. a 3-pixel long by 2-pixel wide cilium was the minimum accepted cilium size and the length had to be at least 1.5 fold of the width). The mean GFP intensity within these Ivs-positive cilia was used to estimate the ciliary level of Smo protein. The inventors subtracted the background of the mean GFP intensity in the 3-pixel wide area around each candidate cilium to avoid some false positives. Those Ivs-positive cilia that exceed the final mean GFP intensity threshold set for each experiment were deemed Smo-positive cilia.
Hoechst staining was used to determine the total number of nuclei per well.
Measurements of the geometry of the cilia as well as the total fluorescent intensities of each cilium in the Smo- and Ivs-channels were used to determine if any of the compounds were having unusual effects on cilia size, intensity or frequency of observation or combinations of all three characteristics.

Hh pathway activity [3] = assay: Gli-luciferase reporter assay, Hh pathway activation by compound alone (NIH/3T3 cells)
Experimental: as §4

T1 sequence (Q99835 28-787): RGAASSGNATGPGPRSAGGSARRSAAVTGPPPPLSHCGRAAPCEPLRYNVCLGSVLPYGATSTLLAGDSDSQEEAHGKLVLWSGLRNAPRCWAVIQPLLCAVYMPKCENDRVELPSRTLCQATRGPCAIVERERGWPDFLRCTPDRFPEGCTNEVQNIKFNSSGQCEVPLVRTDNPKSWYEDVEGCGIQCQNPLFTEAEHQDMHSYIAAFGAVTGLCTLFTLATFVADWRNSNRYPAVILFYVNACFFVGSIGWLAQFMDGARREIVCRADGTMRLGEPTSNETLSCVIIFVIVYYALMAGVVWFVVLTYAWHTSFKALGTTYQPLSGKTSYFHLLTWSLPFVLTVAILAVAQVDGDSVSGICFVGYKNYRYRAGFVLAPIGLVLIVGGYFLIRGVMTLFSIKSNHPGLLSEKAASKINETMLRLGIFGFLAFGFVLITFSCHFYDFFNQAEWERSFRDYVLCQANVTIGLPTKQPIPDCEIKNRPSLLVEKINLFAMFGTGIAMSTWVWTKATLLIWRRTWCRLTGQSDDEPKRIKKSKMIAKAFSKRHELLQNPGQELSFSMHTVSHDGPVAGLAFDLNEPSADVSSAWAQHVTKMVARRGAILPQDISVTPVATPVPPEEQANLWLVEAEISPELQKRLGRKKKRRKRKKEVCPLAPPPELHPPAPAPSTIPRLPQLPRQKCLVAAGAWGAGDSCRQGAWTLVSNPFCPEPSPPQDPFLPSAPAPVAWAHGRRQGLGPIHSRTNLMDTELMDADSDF
Chain of Smo::GFP (Q99835 28-787): as above

effect on Hh pathway activation induced by loss of suFU [1] | IC50 (Hh pathway activity [2]) | IC50 (Smo::GFP) | IC50 (SmoM2; Mus musculus, Shh Light II, 3T3/SmoM2::GFP Overexpression/Shh-LightII, stimulus none, read-out: IC50, inhibition of expression of Gli-luciferase reporter induced by SmoM2::GFP overexpression) | IC50 (Smo::EGFP) | EC50 (Hh pathway activity [3]; Mus musculus, NIH3T3, Gli-luciferase reporter, compound alone, read-out: EC50 for weak transcriptional activation) | Compound | effect on SmoM2 driven Hh pathway activity, transcriptional reporter (SmoM2; SmoM2 overexpression) | Hh pathway activation in transcription reporter assay (Hh pathway activity [3]; FA 10 μM) | transcriptional response in Gli-luciferase reporter assay (Hh pathway activity [3]; FA >50 μM)
does not alter | ~2000 nM | 80 nM | > 30000 nM | 800 nM | – | CCN(CC)c1ccc(/C=N/NC(=O)c2ccc(O)cc2)cc1 [DY131] | failed to inhibit | – | –
– | – | – | – | – | > 50000 nM | CC1(C)O[C@@H]2C[C@H]3[C@@H]4C[C@H](F)C5=CC(=O)C=C[C@]5(C)[C@@]4(F)[C@@H](O)C[C@]3(C)[C@]2(C(=O)CO)O1 [FA, fluocinolone acetonide] | – | no pathway activation was observed | 4 fold
